Data taken from patent EP2848693A1, “Concatenation of halogenated alkenyl diphosphate derivatives” (LANXESS Deutschland GmbH, priority 2013, dated 2015).

Legend:
EcUPPS = target: T1, EcUPPS (Escherichia coli, UniProt P60472); assay: Product chain length by HPLC with fluorescent starter substrate 110; type: biochemical; conditions: 10 µM EcUPPS, 110 as starter substrate, HPLC of hydrolysed products
T1 construct: made in house; host or cells: E. coli
Description: (§1) Zur Bestimmung der Produktkettenlängen wurden 500 µL Enzymassays in MS-Gläschen durchgeführt. […] Die Extraktion der Polyprenyldiphosphate erfolgte mit 500 µL 1-Butanol. Die Butanolphase wurde in ein neues Glas überführt und unter Stickstoffstrom von dem Lösungsmittel befreit. Die Hydrolyse der Diphosphate zum Polyprenol erfolgte durch Zugabe von 200 µL Hydrolysepuffer (20% Isopropanol, 4,4 Units/mL saure Phophatase aus Kartoffeln, 0,1 % Triton X-100, 50 mM Natriumacetat (pH 4,7)) und wurde über Nacht bei 37 °C inkubiert. Die Polyprenole wurden mit 500 µL nHexan extrahiert und zur weiteren DC- oder HPLC-Analyse vorbereitet. Für DC-Experimente und LC/ESI-MS-Analysen wurde die nHexan-Phase in ein neues Glas überführt, das Lösungsmittel abgedampft und die Produkte erneut in 100 µL nHexan resuspendiert um eine Aufkonzentrierung zu erreichen. Für HPLC-Analysen mit 110 ((2E,6E)-8-O-(N-methyl-2-aminobenzoyl)-3,7-dimethyl-2,6-octandien-1-diphosphat) als Startersubstrat wurde die nHexan-Phase 1:3 verdünnt in das HPLC-System mittels Autosampler injiziert.
Die HPLC-Analyse der Polyprenole erfolgte an einer Anlage von Merck HITACHI D-7000, wobei als stationäre Phase eine YMC-ODS AQ (150 x 4 mm, 5 µm; YMC Europe GmbH, Dinslaken) Säule verwendet wurde. Die Elution erfolgte mit 1 mL·min^-1 und die Detektion bei 210 nm mit einem UV-VIS Detektor: Merck HITACHI L-7420. […]

ThkCPT = target: T2, ThkCPT (Thermococcus kodakarensis, UniProt Q5JGE1); assay: as above; type: biochemical, Thermococcus kodakaraensis; conditions: 10 µM ThkCPT, 110 as starter substrate, room temperature 25°C
T2 construct: made in house; host or cells: E. coli
T2 sequence (Q5JGE1 1-264): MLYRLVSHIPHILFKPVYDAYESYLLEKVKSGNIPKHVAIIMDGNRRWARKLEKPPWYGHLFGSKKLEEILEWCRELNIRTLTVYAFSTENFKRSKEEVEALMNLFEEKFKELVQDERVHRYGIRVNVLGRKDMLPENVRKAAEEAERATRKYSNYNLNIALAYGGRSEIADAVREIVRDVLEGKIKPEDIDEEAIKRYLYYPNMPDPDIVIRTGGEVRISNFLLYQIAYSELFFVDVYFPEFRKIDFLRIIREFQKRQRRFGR
Description: as §1
Die HPLC-Analyse der Polyprenole erfolgte an einer Anlage von Merck HITACHI D-7000, wobei als stationäre Phase eine YMC-ODS AQ (150 x 4 mm, 5 µm; YMC Europe GmbH, Dinslaken) Säule verwendet wurde. Die Elution erfolgte mit 1 mL·min^-1 und die Detektion bei 210 nm mit einem UV-VIS Detektor: Merck HITACHI L-7420. Das Injektionsvolumen betrug dabei 5 µL. Die mobile Phase setzte sich aus Laufmittel A (MeOH/H2O/Isopropanol 12:1:8 (v/v/v)) und Laufmittel B (nHexan/Isopropanol 7:3 (v/v)) zusammen. Die Probenaufgabe erfolgte mittels Autosampler (Merck HITACHI L-7250). [drawing 35]
Zur selektiven und vor allem sensitiven Detektion von Polyprenolen kann ein alternatives, fluoreszierendes Startersubstrat verwendet werden, (2E,6E)-8-O-(N-methyl-2-aminobenzoyl)-3,7-dimethyl-2,6-octandien-1-diphosphat (110). Die Analyse erfolgte wie in Beispiel 6 beschrieben. Dabei wurden 3 µL pro Probe injiziert und die Detektion erfolgte über Fluoreszenz: Ex 352 nm / Em 420 nm wobei das Gerät Merck HITACHI L-7480 als Fluoreszenzdetektor verwendet wurde. […]

T1 sequence (P60472 whole entry): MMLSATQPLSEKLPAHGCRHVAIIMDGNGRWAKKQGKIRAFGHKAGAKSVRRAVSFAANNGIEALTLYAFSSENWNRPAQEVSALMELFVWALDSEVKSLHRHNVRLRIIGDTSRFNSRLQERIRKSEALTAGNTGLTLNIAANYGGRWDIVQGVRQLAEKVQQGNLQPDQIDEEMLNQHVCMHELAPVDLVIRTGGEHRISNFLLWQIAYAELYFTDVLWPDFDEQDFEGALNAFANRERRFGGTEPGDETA

Which “Kondensationsschritte / Elongationseinheiten” value (EcUPPS) does the source give for `C=C(Cl)CCOP(=O)(O)OP(=O)(O)O` [Cl-BPP, 3-Chlor-3-Butenyldiphosphat] here?
The value was 2.

What about the “Kondensationen (Reaktionsprodukte)” value (ThkCPT) of the same compound?
The value was “mehr als zwei Kondensationen”.
